# Columns and labels:
# barnyardgrass [1] = assay: Test A pre-/postemergence herbicide test; format: in vivo, Echinochloa crus-galli
# Procedure, shortened: (§1)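 Approximately 10 days after treatment in the greenhouse, plants were compared with untreated controls and given a 0–100 visual injury rating. Applications: preemergence directed soil spray; postemergence on 2–10 cm plants at the one- to two-leaf stage.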
# kochia = assay: Test A pre-/postemergence herbicide test; format: in vivo, Kochia scoparia; settings: for Plant response rating, Kochia: 0 to 100 scale
# Procedure, shortened: as §1
# ragweed = assay: Test A pre-/postemergence herbicide test; format: in vivo, Ambrosia elatior; settings: for Plant response rating, Ragweed: 0 to 100 scale
# Procedure, shortened: as §1
# ryegrass, Italian = assay: Test A pre-/postemergence herbicide test; format: in vivo, Lolium multiflorum; settings: for Plant response rating, Ryegrass, Italian: 0 to 100 scale
# Procedure, shortened: as §1
# giant foxtail = assay: Test A pre-/postemergence herbicide test; format: in vivo, Setaria faberii; settings: for Plant response rating, Foxtail, Giant: 0 to 100 scale
# Procedure, shortened: as §1
# pigweed = assay: Test A pre-/postemergence herbicide test; format: in vivo, Amaranthus retroflexus; settings: for Plant response rating, Pigweed: 0 to 100 scale
# Procedure, shortened: as §1
# wheat = assay: Test A pre-/postemergence herbicide test; format: in vivo, Triticum aestivum; settings: Postemergence; for Plant response rating, Wheat: 125 g ai/ha, 0 to 100 scale; for Wheat plant response rating (0 to 100 scale, 0 is no effect, 100 is complete control): 500 g ai/ha
# Procedure, shortened: as §1
# corn = assay: Test A pre-/postemergence herbicide test; format: in vivo, Zea mays; settings: Postemergence
# Procedure, shortened: as §1
# blackgrass = assay: Test A postemergence herbicide test; format: in vivo, Alopecurus myosuroides
# Procedure, shortened: (§2)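 Visual injury rating, 0 (no effect) to 100 (complete control), versus untreated controls ~10 days after treatment. Postemergence spray applied at one- to two-leaf stage, plants 2–10 cm tall, potted in loam soil/sand. Greenhouse-held.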
# galium = assay: Test A postemergence herbicide test; format: in vivo, Galium aparine; settings: for Plant response rating, Galium: 125 g ai/ha, 0 to 100 scale; for Galium plant response rating (0 to 100 scale, 0 is no effect, 100 is complete control): 500 g ai/ha
# Procedure, shortened: as §2
# rice = assay: Test C flooded paddy test; format: in vivo, Oryza sativa; settings: Flood
# Procedure, shortened: (§3)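 Visual ratings from 0, no effect, to 100, complete control, were made against untreated controls after 13–15 greenhouse days. Compounds had gone straight into paddy water 3 cm above the soil, kept at that depth, on 2-leaf-stage plants.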
# sedge, umbrella = assay: Test C flooded paddy test; format: in vivo, Cyperus difformis; settings: Flood
# Procedure, shortened: as §3
# ducksalad = assay: Test C flooded paddy test; format: in vivo, Heteranthera limosa; settings: Flood
# Procedure, shortened: as §3
# barnyardgrass [2] = assay: Test C flooded paddy test; format: in vivo, Echinochloa crus-galli; settings: Flood
# Procedure, shortened: as §3
# [3] = 125 g ai/ha, visual rating, 0 to 100 scale, 0 no effect, 100 complete control, approximately 10 days, preemergence
# [4] = 125 g ai/ha, visual rating, 0 no effect, 100 complete control, approximately 10 days, preemergence
# [5] = Postemergence, 125 g ai/ha, 0 no effect, 100 complete control
# [6] = 0 no effect, 100 complete control
# [7] = 125 g ai/ha, 0 to 100 scale, 0 no effect, 100 complete control
# [8] = 500 g ai/ha, 0 to 100 scale (0 no effect, 100 complete control)
# [9] = 125 g ai/ha, scale of 0 to 100 where 0 is no effect and 100 is complete control, 13 to 15 days
# [10] = Postemergence, 125 g ai/ha, 0 is no effect, 100 is complete control
# [11] = preemergence, 500 g ai/ha, 0 is no effect and 100 is complete control
# [12] = 0 is no effect, 100 is complete control
# [13] = 125 g ai/ha, 0 to 100 scale, 0 is no effect, 100 is complete control
# [14] = 250 g ai/ha, scale of 0 to 100 where 0 is no effect and 100 is complete control, 13 to 15 days
smiles,measurement,setting,value
O=C1NCC(c2cccc(C(F)(F)F)c2)C1C(=O)Nc1ncc(Cl)s1 (racemic) [Compound 113],"Plant response rating, Barnyardgrass",barnyardgrass [1]; [3],0
same,"Plant response rating, Barnyardgrass","barnyardgrass [1]; Postemergence, 125 g ai/ha, 0 to 100 scale, 0 no effect, 100 complete control",0
same,"Plant response rating, Barnyardgrass","barnyardgrass [1]; Postemergence, 500 g ai/ha, 0 to 100 scale (0 no effect, 100 complete control)",0
same,"Plant response rating, Barnyardgrass","barnyardgrass [1]; preemergence, 500 g ai/ha, 0 to 100 scale (0 no effect, 100 complete control)",0
same,"Plant response rating, Kochia",kochia; [4],0
same,"Plant response rating, Kochia",kochia; [5],0
same,"Kochia plant response rating (0 to 100 scale, 0 is no effect, 100 is complete control)","kochia; Postemergence, 500 g ai/ha",0
same,"Plant response rating, Kochia","kochia; preemergence, 500 g ai/ha",0
same,"Plant response rating, Ragweed",ragweed; [4],0
same,"Plant response rating, Ragweed",ragweed; [5],0
same,"Ragweed plant response rating (0 to 100 scale, 0 is no effect, 100 is complete control)","ragweed; Postemergence, 500 g ai/ha",0
same,"Plant response rating, Ragweed","ragweed; preemergence, 500 g ai/ha",0
same,"Plant response rating, Ryegrass, Italian","ryegrass, Italian; [4]",0
same,"Plant response rating, Ryegrass, Italian","ryegrass, Italian; [5]",0
same,"Ryegrass, Italian plant response rating (0 to 100 scale, 0 is no effect, 100 is complete control)","ryegrass, Italian; Postemergence, 500 g ai/ha",0
same,"Plant response rating, Ryegrass, Italian","ryegrass, Italian; preemergence, 500 g ai/ha",0
same,"Plant response rating, Foxtail, Giant",giant foxtail; [4],0
same,"Plant response rating, Foxtail, Giant",giant foxtail; [5],0
same,"Foxtail, Giant plant response rating (0 to 100 scale, 0 is no effect, 100 is complete control)","giant foxtail; Postemergence, 500 g ai/ha",0
same,"Plant response rating, Foxtail, Giant","giant foxtail; preemergence, 500 g ai/ha",0
same,"Plant response rating, Pigweed",pigweed; [4],0
same,"Plant response rating, Pigweed",pigweed; [5],0
same,"Pigweed plant response rating (0 to 100 scale, 0 is no effect, 100 is complete control)","pigweed; Postemergence, 500 g ai/ha",0
same,"Plant response rating, Pigweed","pigweed; preemergence, 500 g ai/ha",0
same,"Plant response rating, Wheat",wheat; [6],0
same,"Wheat plant response rating (0 to 100 scale, 0 is no effect, 100 is complete control)",wheat,0
same,"Plant response rating, Corn",corn; [7],0
same,"Plant response rating, Corn",corn; [8],0
same,"Plant response rating, Blackgrass",blackgrass; [7],0
same,"Plant response rating, Blackgrass",blackgrass; [8],0
same,"Plant response rating, Galium",galium; [6],0
same,"Galium plant response rating (0 to 100 scale, 0 is no effect, 100 is complete control)",galium,0
same,"Plant response rating, Rice",rice; [9],0
same,"Plant response rating, Rice","rice; 250 g ai/ha, scale 0 to 100",0
same,"Plant response rating, Rice","rice; 500 g ai/ha, scale 0 to 100",0
same,"Plant response rating, Rice","rice; 1000 g ai/ha, scale 0 to 100",0
same,"Plant response rating, Sedge, Umbrella","sedge, umbrella; [9]",0
same,"Plant response rating, Sedge, Umbrella","sedge, umbrella; 250 g ai/ha, scale 0 to 100",0
same,"Plant response rating, Sedge, Umbrella","sedge, umbrella; 500 g ai/ha, scale 0 to 100",0
same,"Plant response rating, Sedge, Umbrella","sedge, umbrella; 1000 g ai/ha, scale 0 to 100",0
same,"Plant response rating, Ducksalad",ducksalad; [9],20
same,"Plant response rating, Ducksalad","ducksalad; 250 g ai/ha, scale 0 to 100",30
same,"Plant response rating, Ducksalad","ducksalad; 500 g ai/ha, scale 0 to 100",50
same,"Plant response rating, Ducksalad","ducksalad; 1000 g ai/ha, scale 0 to 100",70
same,"Plant response rating, Barnyardgrass",barnyardgrass [2]; [9],0
same,"Plant response rating, Barnyardgrass","barnyardgrass [2]; 250 g ai/ha, scale 0 to 100",0
same,"Plant response rating, Barnyardgrass","barnyardgrass [2]; 500 g ai/ha, scale 0 to 100",0
same,"Plant response rating, Barnyardgrass","barnyardgrass [2]; 1000 g ai/ha, scale 0 to 100",0
O=C1NCC(c2cccc(C(F)(F)F)c2)C1C(=O)Nc1cccc(F)c1 (racemic) [Compound 208],"Plant response rating, Barnyardgrass",barnyardgrass [1]; [3],40
same,"Plant response rating, Barnyardgrass","barnyardgrass [1]; Postemergence, 125 g ai/ha, 0 to 100 scale, 0 is no effect, 100 is complete control",50
same,"Barnyardgrass plant response rating (0 to 100 scale, 0 is no effect, 100 is complete control)","barnyardgrass [1]; Postemergence, 500 g ai/ha",80
same,"Plant response rating, Barnyardgrass","barnyardgrass [1]; preemergence, 500 g ai/ha, 0 to 100 scale, 0 is no effect and 100 is complete control",90
same,"Plant response rating, Kochia",kochia; [4],0
same,"Plant response rating, Kochia",kochia; [10],0
same,"Kochia plant response rating (0 to 100 scale, 0 is no effect, 100 is complete control)","kochia; Postemergence, 500 g ai/ha",60
same,"Plant response rating, Kochia",kochia; [11],20
same,"Plant response rating, Ragweed",ragweed; [4],0
same,"Plant response rating, Ragweed",ragweed; [10],0
same,"Ragweed plant response rating (0 to 100 scale, 0 is no effect, 100 is complete control)","ragweed; Postemergence, 500 g ai/ha",20
same,"Plant response rating, Ragweed",ragweed; [11],0
same,"Plant response rating, Ryegrass, Italian","ryegrass, Italian; [4]",0
same,"Plant response rating, Ryegrass, Italian","ryegrass, Italian; [10]",0
same,"Ryegrass, Italian plant response rating (0 to 100 scale, 0 is no effect, 100 is complete control)","ryegrass, Italian; Postemergence, 500 g ai/ha",40
same,"Plant response rating, Ryegrass, Italian","ryegrass, Italian; [11]",20
same,"Plant response rating, Foxtail, Giant",giant foxtail; [4],80
same,"Plant response rating, Foxtail, Giant",giant foxtail; [10],90
same,"Foxtail, Giant plant response rating (0 to 100 scale, 0 is no effect, 100 is complete control)","giant foxtail; Postemergence, 500 g ai/ha",90
same,"Plant response rating, Foxtail, Giant",giant foxtail; [11],90
same,"Plant response rating, Pigweed",pigweed; [4],0
same,"Plant response rating, Pigweed",pigweed; [10],0
same,"Pigweed plant response rating (0 to 100 scale, 0 is no effect, 100 is complete control)","pigweed; Postemergence, 500 g ai/ha",0
same,"Plant response rating, Pigweed",pigweed; [11],0
same,"Plant response rating, Wheat",wheat; [12],0
same,"Wheat plant response rating (0 to 100 scale, 0 is no effect, 100 is complete control)",wheat,40
same,"Plant response rating, Corn",corn; [13],0
same,"Corn plant response rating (0 to 100 scale, 0 is no effect, 100 is complete control)",corn; 500 g ai/ha,50
same,"Plant response rating, Blackgrass",blackgrass; [13],20
same,"Blackgrass plant response rating (0 to 100 scale, 0 is no effect, 100 is complete control)",blackgrass; 500 g ai/ha,60
same,"Plant response rating, Galium",galium; [12],0
same,"Galium plant response rating (0 to 100 scale, 0 is no effect, 100 is complete control)",galium,50
same,"Plant response rating, Rice",rice; [9],0
same,"Plant response rating, Rice",rice; [14],0
same,"Plant response rating, Rice","rice; 500 g ai/ha, scale 0 to 100",0
same,"Plant response rating, Rice","rice; 1000 g ai/ha, scale 0 to 100",15
same,"Plant response rating, Sedge, Umbrella","sedge, umbrella; [9]",0
same,"Plant response rating, Sedge, Umbrella","sedge, umbrella; [14]",0
same,"Plant response rating, Sedge, Umbrella","sedge, umbrella; 500 g ai/ha, scale 0 to 100",0
same,"Plant response rating, Sedge, Umbrella","sedge, umbrella; 1000 g ai/ha, scale 0 to 100",0
same,"Plant response rating, Ducksalad",ducksalad; [9],0
same,"Plant response rating, Ducksalad",ducksalad; [14],45
same,"Plant response rating, Ducksalad","ducksalad; 500 g ai/ha, scale 0 to 100",45
same,"Plant response rating, Ducksalad","ducksalad; 1000 g ai/ha, scale 0 to 100",100
same,"Plant response rating, Barnyardgrass",barnyardgrass [2]; [9],0
same,"Plant response rating, Barnyardgrass",barnyardgrass [2]; [14],20
same,"Plant response rating, Barnyardgrass","barnyardgrass [2]; 500 g ai/ha, scale 0 to 100",45
same,"Plant response rating, Barnyardgrass","barnyardgrass [2]; 1000 g ai/ha, scale 0 to 100",65

# Source: patent publication US10294202B2, “Pyrrolidinones as herbicides” (FMC Corporation, priority 2013, dated 2019)
